# Laboratory results published in paper PMC5505654 (European journal of medicinal chemistry, 2017).
# Assays:
# [1] = biological target: AM2-S31N mutant of the A/M2 proteins (Influenza A virus, UniProt P0DOF5, S31N); format: biochemical; settings: pH 5.5
# [2] = tested on: A/WSN/33 (H1N1) virus; format: cell-based, influenza A virus
smiles,measurement,setting,value
CC(C)[Si](c1ccc(CNC23CC4CC(CC(O)(C4)C2)C3)cc1)(C(C)C)C(C)C [Compound 5f],% AM2-S31N inhibition,[1],inactive
same,A/WSN/33 EC50,[2],inactive
